Read-outs that look alike come from different tables or passages of the source.
Experiments:
KRAS-G2C/SOS1 = target: T1, KRAS-G2C/SOS1 (Homo sapiens, UniProt P01116, G12C); experiment: KRAS-G12C/SOS1 binding experiment (HTRF); settings: Tag2-KRAS-G12C protein and Tag1-SOS protein
T1 construct: Tag2 (identity not disclosed)
Method: • A) Dilute Tag2-KRAS-G12C protein and Tag1-SOS protein with diluent at 1:100, anti-Tag1-Tb3+ antibody and anti-Tag2-XL665 with detection buffer at 1:100 or 1:25 respectively Dilute. • B) Dilute the compound to be tested with diluent starting from […] concentration, 4 times gradient, a total of 6 concentration gradients, and dilute to 10× stock solution. • C) In a 96-well plate, add 4 uLTag2-KRAS-G12C protein, 4 uL Tagl-SOS protein, 2 ul dilution solution (positive control) or test compound (different concentrations of 10× stock solution) to each well in sequence, a total of 10 ul, and incubate at room temperature for […], add pre-mixed 5 uL anti-Tagl-Tb3+ and 5 uL anti-Tag2-xL665, seal the plate, incubate at room temperature for 2 hours, and read the HTRF signal with a TECAN INFINITEF NANO+ microplate reader.
The ratio of […] and donor excitation signals for each single well was calculated using the formula ratio=665 nm signal value/620 nm signal value×[…]. Data were processed using Graphpadprism5 software. IC50 values were calculated by sigmoidal dose-response curve fitting.

[1] = system: H358 (KRAS G12C mutant) cells; experiment: Tumor cell proliferation inhibition assay (Cell Titer-Glo, 72 h); assay type: cell-based; settings: inhibition of tumor cell proliferation, 72 hours with compound, 10% fetal bovine serum, read-out: NCI-H538 IC50(nm)
Summary of the method: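 H358 cells seeded, cultured 24 h, then exposed to serial compound concentrations for 72 h in 10% FBS at 37 °C, 5% CO2. ATP measured by CellTiter-Glo; % inhibition relative to DMSO (max) and medium-only (min) signals. IC50 from sigmoid dose-response fit, binned into categories A–D.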

[2] = background statement; cited from earlier work
KRAS G12C = KRAS G12C (Homo sapiens, UniProt P01116, G12C); settings: background statement; cited from earlier work

| Compound | IC50 (KRAS-G2C/SOS1) [nM] | IC50 [1] [nM] | IC50 ([1]; Homo sapiens, NCI-H358) [nM] | pharmacokinetic properties [2] | tumor effect in vivo (KRAS G12C) |
| --- | --- | --- | --- | --- | --- |
| C=CC(=O)N1CC(N2CCN(C(=O)CNc3cc(C4(C)CC4)c(Cl)cc3O)CC2)C1 [ARS-853] | – | – | – | poor | – |
| C=CC(=O)N1CCN(c2ncnc3c(F)c(-c4c(O)cccc4F)c(Cl)cc23)CC1 [ARS-1620] | – | – | – | – | induce tumor regression |
| C=CC(=O)N1CCN(c2cc(OC[C@@H]3CCCN3C)nc3nc(-c4c(O)cccc4F)ccc23)[C@H](C)C1 [Compound 1, 7-(2-Fluoro-6-hydroxyphenyl)-4-(((R)-4-acryloyl-2-methylpiperazine)-1-yl)-2-(((S)-1-methylpyrrolidin-2-yl)methoxy)-1,8-naphthyridine] | > 500 | > 2000 | – | – | – |
| C=C(F)C(=O)N1CCN(c2cc(OC[C@@H]3CCCN3C)nc3nc(-c4c(O)cccc4F)c(F)cc23)[C@H](C)C1 [Compound 2, 7-(2-Fluoro-6-hydroxyphenyl)-6-fluoro-4-(((R)-4-(2-fluoroacryloyl)-2-methylpiperazine)-1-yl)-2-(((S)-1-methylpyrrolidin-2-yl)methoxy)-1,8-naphthyridine] | > 500 | – | > 2000 | – | – |
| C=CC(=O)N1C2CCC1CN(c1cc(OC[C@@]34CCCN3C[C@H](F)C4)nc3nc(-c4cccc5cccc(F)c45)c(F)cc13)C2 [Compound 28] | < 50 | – | ≤ 50 | – | – |

The next lines start with results.

| IC50 (KRAS-G2C/SOS1) [nM] | IC50 [1] [nM] | IC50 ([1]; Homo sapiens, NCI-H358) [nM] | Compound | pharmacokinetic properties [2] | tumor effect in vivo (KRAS G12C) |
| --- | --- | --- | --- | --- | --- |
| < 50 | ≤ 50 | – | 7-(8-Fluoronaphthyl)-6-fluoro-4-(((S)-4-(2-fluoroacryloyl)-3-carbonitrileethylpiperazine)-1-yl)-2-((((S)-1-methylpyrrolidin-2-yl)methoxy)-1,8-naphthyridine [Compound 5] | – | – |
| > 500 | – | > 2000 | C=CC(=O)N1CCN(c2cc(OC[C@@H]3CCCN3C)nc3nc(-c4c(O)cccc4F)c(F)cc23)C[C@@H]1CC#N [Compound 3] | – | – |
| > 500 | – | > 2000 | C=C(F)C(=O)N1CCN(c2cc(OC[C@@H]3CCCN3C)nc3nc(-c4c(O)cccc4F)c(F)cc23)C[C@@H]1CC#N [Compound 4, 7-(2-Fluoro-6-hydroxyphenyl)-6-fluoro-4-(((S)-4-(2-fluoroacryloyl)-3-carbonitrileethylpiperazine)-1-yl)-2-(((S)-1-methylpyrrolidin-2-yl)methoxy)-1,8-naphthyridine] | – | – |
| < 50 | – | ≤ 50 | C=CC(=O)N1CCN(c2cc(OC[C@@H]3CCCN3C)nc3nc(-c4cccc5cccc(F)c45)c(F)cc23)[C@H](C)C1 [Compound 7] | – | – |

From US20240182470A1, “KRASG12C MUTANT PROTEIN INHIBITOR, PREARATION AND USE THEREOF” (YA THERAPEUTICS INC, priority 2021, published 2024)
